Results on two compounds are retold here after patent US20140296281A1, “METHODS FOR SCREENING A BRCA1 LOSS-OF-FUNCTION IN A SUBJECT SUFFERING FROM A CANCER” (INSERM (INSTITUT NATIONAL DE LA SANTE ET DE LA RECHERCHE …, priority 2011, published 2014).

Each structure is given as a SMILES string. Entries after “also recorded” stand apart in the source; their conditions may differ.

Test [1] has as its target MAPK phosphorylated p38 (P-p38) (Homo sapiens, UniProt Q16539). Put plainly: Western blot of phosphorylated MAPK p38. It is filed as cell-based. The note with it: MCF-7, in presence of SB. The protocol: (§1) These five antibodies were then detected with an anti-rabbit HRP-conjugated secondary antibody (1:5000) (Santa Cruz, Heidelberg, Germany). Actin expression was analyzed with the human anti-β-actin mouse monoclonal primary antibody (1:20 000) (β-actin (AC-15); A5441, Sigma-Aldrich, St Quentin Fallavier, France), and then detected with an anti-mouse HRP-conjugated secondary antibody (1:2000) (Sigma-Aldrich, St Quentin Fallavier, France).
(In general: In western blotting, separated proteins are transferred to a membrane and probed.)

Another test concerns GR P-Ser211. Put plainly: Western blot of GR P-Ser211. It is filed as cell-based, human. The procedure:
[…] Control cells were treated with ethanol as vehicle (1:1000). Treatments were carried out in a phenol red free medium containing 5% dextran-charcoal-stripped serum for a period of 24 h in MCF-7 and MDA-MB231 and 48 h in HBE cells.
as §1

Another test concerns BRCA1. The settings on record: mouse mammary cells (Antonova and Mueller 2008); cited from earlier work.

Chain of MAPK phosphorylated p38 (P-p38) (Q16539 whole entry): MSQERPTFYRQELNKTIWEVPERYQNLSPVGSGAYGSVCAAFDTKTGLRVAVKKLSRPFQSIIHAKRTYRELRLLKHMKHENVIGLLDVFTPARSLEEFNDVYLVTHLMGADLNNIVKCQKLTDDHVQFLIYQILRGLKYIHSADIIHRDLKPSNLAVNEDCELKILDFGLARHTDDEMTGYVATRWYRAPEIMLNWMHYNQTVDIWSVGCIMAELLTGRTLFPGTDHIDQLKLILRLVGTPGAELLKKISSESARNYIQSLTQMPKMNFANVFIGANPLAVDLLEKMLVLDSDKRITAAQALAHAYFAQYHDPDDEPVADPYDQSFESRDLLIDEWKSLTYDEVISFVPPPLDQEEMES

In the case of `Oc1ccc(-c2nc(-c3ccncc3)c(-c3ccc(F)cc3)[nH]2)cc1` [SB], the “levels of P-p38” value in test [1] is “increased”. Further, the “decrease of GR P-Ser211 level” value with GR P-Ser211 (MCF-7, DEX+SB compared to DEX treatment alone) is “also observed”. Besides, the “GR P-Ser211 level” value in the test on GR P-Ser211 (MCF-7, cells exposed to SB compared to basal conditions, even with BRCA1 overexpression) was “constant decrease”.

In the case of `C[C@]12CCC(=O)C=C1CC[C@@H]1[C@@H]2[C@@H](O)C[C@@]2(C)[C@H]1CC[C@]2(O)C(=O)CO` [hydrocortisone], the BRCA1 expression result with BRCA1 was “repress; also recorded: decrease”.
